Laboratory results from US4965280A, “Antifungal carbinols” (E. I. Du Pont de Nemours and Company, priority 1989, dated 1990).

What was measured:
Experiment in all cases: Test E
SNTLS CHAMOMILE = assay type: in vivo, Matricaria indora
CMN CHICKWEED = assay type: in vivo, Stellaria media
PERSN SPEEDWELL = assay type: in vivo, Veronica persica
WILD OATS = assay type: in vivo, Avena fatua
WILD RADISH = assay type: in vivo, Raphanus raphanistrum
BLACK NIGHTSHAD = assay type: in vivo, Solanum nigrum
BLACKGRASS = assay type: in vivo, Alopercurus mysuroides
Description: Seeds of the following crops and weeds are sown into 15 cm pots containing Sassafras sandy loam soil: wheat (Triticum aestivum cv. Park), barley (Hordeum vulgare cv. Bonanza), sugarbeet (Beta vulgaris cv. USH-11), rapeseed (Brassica napus cv. Jet Neuf), black nightshade (Solanum nigrum), chickweed (Stellaria media), lambsquarter (Chenopodium album), Galium aparine, knotweed (Polygonum aviculare), Kochia scoparia, Matricaria indora, redroot pigweed (Amaranthus retroflexus), smartweed (Polygonum persicaria), speedwell (Veronica persica), wild buckwheat (Polygonum convolvulus), wild mustard (Brassica spp.), wild radish (Raphanus raphanistrum), annual bluegrass (PO annua), annual ryegrass (Lolium multiflorum), blackgrass (Alopercurus mysuroides), green foxtail (Setaria viridis), and wild oats (Avena fatua). Compounds are formulated in a nonphytotoxic solvent and applied to the plants as a foliar spray or applied to the soil surface. Plants are treated at two stages: preemergence, or postemergence when the sugarbeets are at the 2-3 true leaf stage. Plants are grown in a temperature-controlled greenhouse for the duration of the test.
Weed control and crop injury are evaluated visually at 3-4 weeks after compound application, using a scale of 0 to 100%, where 0=no injury and 100=complete death of the plant. All plants are rated with respect to untreated plants (checks) grown in the greenhouse under identical conditions to the treated plants.

MUSTARD SPP. = assay type: in vivo, Brassica spp.

C=C(c1ccc(F)cc1)C(O)(Cn1cncn1)c1ccc(F)cc1F (stereo not shown) [Example 4, 2-(2,4-Difluorophenyl)-3-(4-fluorophenyl)-1-(1H-1,2,4-triazol-1-yl)-3-buten-2-ol] gave a plant response (SNTLS CHAMOMILE; POSTEMERGENCE 0064 GM/HA) of 30%, a plant response (SNTLS CHAMOMILE; POSTEMERGENCE 0125 GM/HA) of 50% and a plant response (SNTLS CHAMOMILE; POSTEMERGENCE 0250 GM/HA) of 70%. For the same compound, the plant response (SNTLS CHAMOMILE; POSTEMERGENCE 0500 GM/HA) was 85%, the plant response (SNTLS CHAMOMILE; PREEMERGENCE 0500 GM/HA) was 100% and the plant response (CMN CHICKWEED; POSTEMERGENCE 0064 GM/HA) was 0%. For the same compound, the plant response (CMN CHICKWEED; POSTEMERGENCE 0125 GM/HA) was 0%, the plant response (CMN CHICKWEED; POSTEMERGENCE 0250 GM/HA) was 0% and the plant response (CMN CHICKWEED; POSTEMERGENCE 0500 GM/HA) was 0%. For the same compound, the plant response (CMN CHICKWEED; PREEMERGENCE 0500 GM/HA) was 0%, the plant response (PERSN SPEEDWELL; POSTEMERGENCE 0064 GM/HA) was 20% and the plant response (PERSN SPEEDWELL; POSTEMERGENCE 0125 GM/HA) was 70%. It also gave a plant response (PERSN SPEEDWELL; POSTEMERGENCE 0250 GM/HA) of 100%, a plant response (PERSN SPEEDWELL; POSTEMERGENCE 0500 GM/HA) of 100% and a plant response (PERSN SPEEDWELL; PREEMERGENCE 0500 GM/HA) of 90%. For the same compound, the plant response (WILD OATS; POSTEMERGENCE 0064 GM/HA) was 0%, the plant response (WILD OATS; POSTEMERGENCE 0125 GM/HA) was 0% and the plant response (WILD OATS; POSTEMERGENCE 0250 GM/HA) was 0%. It also gave a plant response (WILD OATS; POSTEMERGENCE 0500 GM/HA) of 30%, a plant response (WILD OATS; PREEMERGENCE 0500 GM/HA) of 90% and a plant response (WILD RADISH; POSTEMERGENCE 0064 GM/HA) of 20%. It also gave a plant response (WILD RADISH; POSTEMERGENCE 0125 GM/HA) of 60%, a plant response (WILD RADISH; POSTEMERGENCE 0250 GM/HA) of 80% and a plant response (WILD RADISH; POSTEMERGENCE 0500 GM/HA) of 90%. It also gave a plant response (WILD RADISH; PREEMERGENCE 0500 GM/HA) of 50%, a plant response (BLACK NIGHTSHAD; POSTEMERGENCE 0064 GM/HA) of 10% and a plant response (BLACK NIGHTSHAD; POSTEMERGENCE 0125 GM/HA) of 30%. The plant response (BLACK NIGHTSHAD; POSTEMERGENCE 0250 GM/HA) was 70%, the plant response (BLACK NIGHTSHAD; POSTEMERGENCE 0500 GM/HA) was 90% and the plant response (BLACK NIGHTSHAD; PREEMERGENCE 0500 GM/HA) was 100%. The plant response (BLACKGRASS; POSTEMERGENCE 0064 GM/HA) was 0%, the plant response (BLACKGRASS; POSTEMERGENCE 0125 GM/HA) was 20% and the plant response (BLACKGRASS; POSTEMERGENCE 0250 GM/HA) was 20%. For the same compound, the plant response (BLACKGRASS; POSTEMERGENCE 0500 GM/HA) was 50%, the plant response (BLACKGRASS; PREEMERGENCE 0500 GM/HA) was 90% and the plant response (MUSTARD SPP.; POSTEMERGENCE 0064 GM/HA) was 20%. For the same compound, the plant response (MUSTARD SPP.; POSTEMERGENCE 0125 GM/HA) was 40%, the plant response (MUSTARD SPP.; POSTEMERGENCE 0250 GM/HA) was 40% and the plant response (MUSTARD SPP.; POSTEMERGENCE 0500 GM/HA) was 80%. The plant response (MUSTARD SPP.; PREEMERGENCE 0500 GM/HA) was 50%.
With C=C(c1ccccc1)C(O)(Cn1cncn1)c1ccc(Cl)cc1 (stereo not shown) [Example 51, 2-(4-Chlorophenyl)-3-phenyl-1-(1H-1,2,4-triazol-1-yl)-3-buten-2-ol] the plant response (SNTLS CHAMOMILE; POSTEMERGENCE 0064 GM/HA) was 0%, the plant response (SNTLS CHAMOMILE; POSTEMERGENCE 0125 GM/HA) was 20% and the plant response (SNTLS CHAMOMILE; POSTEMERGENCE 0250 GM/HA) was 40%. It also gave a plant response (SNTLS CHAMOMILE; POSTEMERGENCE 0500 GM/HA) of 60%, a plant response (SNTLS CHAMOMILE; PREEMERGENCE 0500 GM/HA) of 100% and a plant response (CMN CHICKWEED; POSTEMERGENCE 0064 GM/HA) of 0%. For the same compound, the plant response (CMN CHICKWEED; POSTEMERGENCE 0125 GM/HA) was 0%, the plant response (CMN CHICKWEED; POSTEMERGENCE 0250 GM/HA) was 0% and the plant response (CMN CHICKWEED; POSTEMERGENCE 0500 GM/HA) was 0%. The plant response (CMN CHICKWEED; PREEMERGENCE 0500 GM/HA) was 0%, the plant response (PERSN SPEEDWELL; POSTEMERGENCE 0064 GM/HA) was 0% and the plant response (PERSN SPEEDWELL; POSTEMERGENCE 0125 GM/HA) was 0%. It also gave a plant response (PERSN SPEEDWELL; POSTEMERGENCE 0250 GM/HA) of 20%, a plant response (PERSN SPEEDWELL; POSTEMERGENCE 0500 GM/HA) of 40% and a plant response (PERSN SPEEDWELL; PREEMERGENCE 0500 GM/HA) of 20%. The plant response (WILD OATS; POSTEMERGENCE 0064 GM/HA) was 0%, the plant response (WILD OATS; POSTEMERGENCE 0125 GM/HA) was 0% and the plant response (WILD OATS; POSTEMERGENCE 0250 GM/HA) was 0%. The plant response (WILD OATS; POSTEMERGENCE 0500 GM/HA) was 0%, the plant response (WILD OATS; PREEMERGENCE 0500 GM/HA) was 20% and the plant response (WILD RADISH; POSTEMERGENCE 0064 GM/HA) was 0%. For the same compound, the plant response (WILD RADISH; POSTEMERGENCE 0125 GM/HA) was 30%, the plant response (WILD RADISH; POSTEMERGENCE 0250 GM/HA) was 30% and the plant response (WILD RADISH; POSTEMERGENCE 0500 GM/HA) was 60%. It also gave a plant response (WILD RADISH; PREEMERGENCE 0500 GM/HA) of 0%, a plant response (BLACK NIGHTSHAD; POSTEMERGENCE 0064 GM/HA) of 0% and a plant response (BLACK NIGHTSHAD; POSTEMERGENCE 0125 GM/HA) of 0%. For the same compound, the plant response (BLACK NIGHTSHAD; POSTEMERGENCE 0250 GM/HA) was 40%, the plant response (BLACK NIGHTSHAD; POSTEMERGENCE 0500 GM/HA) was 60% and the plant response (BLACK NIGHTSHAD; PREEMERGENCE 0500 GM/HA) was 100%. For the same compound, the plant response (BLACKGRASS; POSTEMERGENCE 0064 GM/HA) was 0%, the plant response (BLACKGRASS; POSTEMERGENCE 0125 GM/HA) was 0% and the plant response (BLACKGRASS; POSTEMERGENCE 0250 GM/HA) was 0%. For the same compound, the plant response (BLACKGRASS; POSTEMERGENCE 0500 GM/HA) was 0%, the plant response (BLACKGRASS; PREEMERGENCE 0500 GM/HA) was 0% and the plant response (MUSTARD SPP.; POSTEMERGENCE 0064 GM/HA) was 0%. It also gave a plant response (MUSTARD SPP.; POSTEMERGENCE 0125 GM/HA) of 30%, a plant response (MUSTARD SPP.; POSTEMERGENCE 0250 GM/HA) of 30% and a plant response (MUSTARD SPP.; POSTEMERGENCE 0500 GM/HA) of 30%. For the same compound, the plant response (MUSTARD SPP.; PREEMERGENCE 0500 GM/HA) was 0%.
For C=C(c1ccc(Cl)cc1Cl)C(O)(Cn1cncn1)c1ccccc1F (stereo not shown) [Example 107], the plant response (SNTLS CHAMOMILE; PREEMERGENCE 0250 GM/HA) was 70%, the plant response (CMN CHICKWEED; PREEMERGENCE 0250 GM/HA) was 0% and the plant response (PERSN SPEEDWELL; PREEMERGENCE 0250 GM/HA) was 100%. It also gave a plant response (WILD OATS; PREEMERGENCE 0250 GM/HA) of 0%, a plant response (WILD RADISH; PREEMERGENCE 0250 GM/HA) of 60% and a plant response (BLACK NIGHTSHAD; PREEMERGENCE 0250 GM/HA) of 80%. The plant response (BLACKGRASS; PREEMERGENCE 0250 GM/HA) was 20% and the plant response (MUSTARD SPP.; PREEMERGENCE 0250 GM/HA) was 20%.
